Measurements reported in PMC8041284, “Tunable Methacrylamides for Covalent Ligand Directed Release Chemistry” (Journal of the American Chemical Society, 2021).
Where two headings read alike, the source gives them in different places.

Molecular target: BTK (Homo sapiens, UniProt Q06187)
Experiment: biochemical
[1] = read-out: BTK inhibition (%), 0.75 uM BTK, […] probe 3l, 15 min preincubation

BTK, sequence (Q06187 402-655 limits assumed): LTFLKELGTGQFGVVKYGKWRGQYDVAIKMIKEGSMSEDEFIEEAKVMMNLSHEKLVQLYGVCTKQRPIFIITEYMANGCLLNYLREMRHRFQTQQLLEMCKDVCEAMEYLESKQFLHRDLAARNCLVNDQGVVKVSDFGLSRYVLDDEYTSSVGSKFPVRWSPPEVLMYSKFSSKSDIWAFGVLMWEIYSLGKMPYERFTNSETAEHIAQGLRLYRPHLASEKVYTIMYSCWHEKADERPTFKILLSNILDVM

CCCCCCCCCCCCOC(=O)CS(=O)(=O)O [PCM-0215935]
inhibition at 10 µM [1]: -12.8%

COc1cc([C@@H]2c3cc4c(cc3[C@@H](O[C@@H]3O[C@@H]5CO[C@@H](c6cccs6)O[C@H]5[C@H](O)[C@H]3O)[C@H]3COC(=O)[C@H]23)OCO4)cc(OC)c1O [PCM-0095114]
inhibition at 10 µM [1]: 24.1%

C[C@@H]1C(=O)O[C@H]2[C@H](O)[C@]34[C@@H]5OC(=O)[C@]3(O[C@@H]3OC(=O)[C@H](O)[C@@]34[C@H](C(C)(C)C)[C@H]5O)[C@@]12O [PCM-0215011]
inhibition at 10 µM (read-out: BTK inhibition (%)): 5.4%

NC(=O)CN1CC(c2ccccc2)CC1=O (stereo not shown) [PCM-0216067]
inhibition at 10 µM (read-out: BTK inhibition (%)): 10%

CC(=O)Nc1nc(C)c(-c2ccc(Cl)c(S(=O)(=O)NCCO)c2)s1 [PCM-0095173]
inhibition at 10 µM [1]: -10.3%

CCCCC(=O)N(Cc1ccc(-c2ccccc2-c2nn[nH]n2)cc1)[C@H](C(=O)O)C(C)C [PCM-0090417]
inhibition at 10 µM [1]: -27.2%

c1coc(CNc2ncnc3nc[nH]c23)c1 [PCM-0000462]
inhibition at 10 µM [1]: 10.9%

Cc1cc(C)c(CNC(=O)c2cc(-c3ccc(CN4CCOCC4)cc3)cc3c2cnn3C2CCCC2)c(=O)[nH]1 [PCM-0215223]
inhibition at 10 µM [1]: -6.8%

Cn1nnnc1SCC1=C(C(=O)O)N2C(=O)[C@@H](NC(=O)[C@H](OC=O)c3ccccc3)[C@H]2SC1 [PCM-0214900]
inhibition at 10 µM [1]: 8.6%

NS(=O)(=O)c1cc2c(cc1Cl)NC=NS2(=O)=O [PCM-0064466]
inhibition at 10 µM [1]: -10.1%

Cc1nnc(C(=O)NC(C)(C)c2nc(C(=O)NCc3ccc(F)cc3)c(O)c(=O)n2C)o1 [PCM-0095277]
inhibition at 10 µM [1]: 4.7%

Cc1cn(CCN2CCN(c3ccccc3-c3cc(C#N)cc(C(=O)NCCCN4CCCC4)c3)CC2)c2ccccc12 [PCM-0215709]
inhibition at 10 µM [1]: 27%

COc1cccc(-c2c(C)n(Cc3c(F)cccc3C(F)(F)F)c(=O)n(C[C@H](NCCCC(=O)O)c3ccccc3)c2=O)c1F [PCM-0215104]
inhibition at 10 µM [1]: -7%

OCC1(O)COc2cc(O)ccc2-c2cc(O)c(O)cc2C1 (stereo not shown) [PCM-0216494]
inhibition at 10 µM [1]: 39.4%

O=C(/C=C/c1ccc(O)c2c1[C@H](C(=O)O)[C@@H](c1ccc(O)c(O)c1)O2)O[C@H](Cc1ccc(O)c(O)c1)C(=O)O [PCM-0216504]
inhibition at 10 µM [1]: 8.5%

COc1cc(Nc2nc3ccccc3nc2NS(=O)(=O)c2ccc(NC(=O)c3ccc(C)c(OC)c3)cc2)cc(OC)c1 [PCM-0095193]
inhibition at 10 µM [1]: -17.9%

CC1(C)[C@@H]2CC[C@@]1(C)C(=O)C2 [PCM-0214819]
inhibition at 10 µM [1]: 1.6%

COC(=O)[C@H]1[C@H]2C[C@@H]3c4[nH]c5cc(OC)ccc5c4CCN3C[C@H]2C[C@@H](OC(=O)c2cc(OC)c(OC)c(OC)c2)[C@@H]1OC [PCM-0214638]
inhibition at 10 µM [1]: 35%

Cc1onc(-c2c(Cl)cccc2Cl)c1C(=O)N[C@@H]1C(=O)N2[C@@H]1SC(C)(C)[C@@H]2C(=O)O [PCM-0214747]
inhibition at 10 µM [1]: 9.3%

CCCCCCCCCCCCCCCCOc1nc2ccc(C)cc2c(=O)o1 [PCM-0215987]
inhibition at 10 µM [1]: -28.9%

N[C@@H](CCC(=O)O)C(=O)O [PCM-0215690]
inhibition at 10 µM [1]: 10.2%

CCCCc1oc2ccc(NS(C)(=O)=O)cc2c1C(=O)c1ccc(OCCCN(CCCC)CCCC)cc1 [PCM-0095292]
inhibition at 10 µM [1]: 62.3%

COc1ccc([C@@H]2CC(=O)c3c(O)cc(O[C@@H]4O[C@H](CO[C@@H]5O[C@@H](C)[C@H](O)[C@@H](O)[C@H]5O)[C@@H](O)[C@H](O)[C@H]4O)cc3O2)cc1OC [PCM-0215169]
inhibition at 10 µM [1]: 5.4%

CC(C)C(C(=O)O)N1C(=O)/C(=C\c2ccc(Br)cc2)SC1=S (stereo not shown) [PCM-0215783]
inhibition at 10 µM [1]: -3.1%

Nc1ncnc2n[nH]c(Nc3ccc(F)cc3)c12 [PCM-0095728]
inhibition at 10 µM [1]: 37.9%

O=C1c2c(O)cc(O)cc2O[C@H](c2ccc(O)c(O)c2)[C@H]1O [PCM-0087882]
inhibition at 10 µM [1]: 11%

C=C(C)[C@@H]1CC[C@]2(C(=O)O)CC[C@]3(C)[C@H](CC[C@@H]4[C@@]5(C)CC[C@H](O)C(C)(C)[C@@H]5CC[C@]43C)[C@@H]12 [PCM-0214730]
inhibition at 10 µM [1]: 3.9%

CN(C)c1ccc2nc3ccc(=[N+](C)C)cc-3sc2c1 [PCM-0090465]
inhibition at 10 µM [1]: 42.8%
